Source: article PMC6017976, “Enzyme Kinetics and Molecular Docking Studies on Cytochrome 2B6, 2C19, 2E1, and 3A4 Activities by Sauchinone” (Molecules : A Journal of Synthetic Chemistry and Natural …, 2018)
Values joined by “and” are separate entries in the source; they are usually repeats but may differ in a detail not shown here. Equal values may be shown once. Each block holds one compound with its values, some of them ahead of it.

Key:
[1] = molecular target: T1, CYP2C9 (Homo sapiens, UniProt P11712); assay: Reversible inhibition (RI) of CYP2C9 activity in HLMs (cocktail probe assay); format: in vitro ADME; details: 100 μM tolbutamide, 30 min incubation
T1 construct: pooled human liver microsomes from a mixed pool of 50 donors; tissue BD Gentest Co. 452156; host or cells: human liver microsomes, pool of 50 donors
T1 sequence (P11712 whole entry): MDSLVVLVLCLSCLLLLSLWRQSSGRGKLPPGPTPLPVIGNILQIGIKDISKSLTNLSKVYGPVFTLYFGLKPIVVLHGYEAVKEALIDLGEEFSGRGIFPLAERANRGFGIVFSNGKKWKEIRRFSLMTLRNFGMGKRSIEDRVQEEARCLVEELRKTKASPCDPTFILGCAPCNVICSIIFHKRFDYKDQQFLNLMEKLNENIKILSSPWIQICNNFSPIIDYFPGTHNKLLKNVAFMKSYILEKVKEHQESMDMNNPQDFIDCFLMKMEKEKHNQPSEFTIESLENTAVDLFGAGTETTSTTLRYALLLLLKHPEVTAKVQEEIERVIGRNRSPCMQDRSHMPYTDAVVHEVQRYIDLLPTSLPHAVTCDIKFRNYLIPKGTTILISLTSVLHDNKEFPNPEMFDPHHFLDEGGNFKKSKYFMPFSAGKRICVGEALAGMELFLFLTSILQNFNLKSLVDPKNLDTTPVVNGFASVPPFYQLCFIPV

[2] = molecular target: T2, CYP2E1 (Homo sapiens, UniProt P05181); assay: Time-dependent inhibition (TDI) IC50 shift assay on CYP2E1 in HLMs; format: in vitro ADME; details: for IC50: HLMs, 10 min incubation
T2 construct: pooled human liver microsomes from a mixed pool of 50 donors; tissue BD Gentest Co. 452156; host or cells: human liver microsomes, pool of 50 donors
T2 sequence (P05181 whole entry): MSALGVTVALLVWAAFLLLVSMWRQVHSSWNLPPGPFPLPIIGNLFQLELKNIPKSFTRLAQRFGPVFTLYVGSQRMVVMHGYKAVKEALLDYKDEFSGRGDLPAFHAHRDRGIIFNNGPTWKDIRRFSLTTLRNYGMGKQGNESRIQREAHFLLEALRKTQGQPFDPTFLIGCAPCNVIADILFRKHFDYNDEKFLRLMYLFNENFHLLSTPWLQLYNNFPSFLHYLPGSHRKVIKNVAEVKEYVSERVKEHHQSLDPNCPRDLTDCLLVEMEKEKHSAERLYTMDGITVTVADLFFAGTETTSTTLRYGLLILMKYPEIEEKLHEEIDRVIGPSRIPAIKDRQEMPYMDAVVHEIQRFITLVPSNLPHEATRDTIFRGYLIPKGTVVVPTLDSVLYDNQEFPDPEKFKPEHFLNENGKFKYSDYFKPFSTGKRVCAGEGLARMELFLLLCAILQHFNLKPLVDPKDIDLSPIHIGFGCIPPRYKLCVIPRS

[3] = molecular target: T3, CYP2A6 (Homo sapiens, UniProt P11509); assay: Time-dependent inhibition (TDI) IC50 shift assay on CYP2A6 in HLMs; format: in vitro ADME; parameters: pooled human liver microsomes from a mixed pool of 50 donors; tissue BD Gentest Co. 452156; host or cells: human liver microsomes, pool of 50 donors; details: 10 min incubation
T3 sequence (P11509 1-494): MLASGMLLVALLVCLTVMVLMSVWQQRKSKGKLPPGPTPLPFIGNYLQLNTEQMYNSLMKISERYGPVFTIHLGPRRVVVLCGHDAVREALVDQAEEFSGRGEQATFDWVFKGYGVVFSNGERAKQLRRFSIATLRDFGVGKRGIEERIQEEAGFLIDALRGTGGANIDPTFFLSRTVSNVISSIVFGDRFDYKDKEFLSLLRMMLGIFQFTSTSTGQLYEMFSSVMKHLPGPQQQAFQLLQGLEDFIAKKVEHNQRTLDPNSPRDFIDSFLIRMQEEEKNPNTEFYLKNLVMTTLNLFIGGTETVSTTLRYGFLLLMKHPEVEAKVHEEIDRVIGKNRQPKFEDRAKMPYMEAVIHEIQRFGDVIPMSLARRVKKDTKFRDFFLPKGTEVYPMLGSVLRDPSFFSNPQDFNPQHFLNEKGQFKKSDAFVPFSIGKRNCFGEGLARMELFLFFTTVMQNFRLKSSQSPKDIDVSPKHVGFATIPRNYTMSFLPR

[4] = molecular target: T2, CYP2E1; assay: Reversible inhibition (RI) of CYP2E1 activity in HLMs (cocktail probe assay); format: in vitro ADME; details: chlorzoxazone hydroxylation, 50 μM chlorzoxazone, 30 min incubation
[5] = molecular target: T4, CYP3A4 (Homo sapiens, UniProt P08684); assay: Enzyme kinetic assay (Dixon plot, Ki) for CYP3A4 in HLMs; format: in vitro ADME
T4 construct: pooled human liver microsomes from a mixed pool of 50 donors; tissue BD Gentest Co. 452156; host or cells: human liver microsomes, pool of 50 donors
T4 sequence (P08684 whole entry): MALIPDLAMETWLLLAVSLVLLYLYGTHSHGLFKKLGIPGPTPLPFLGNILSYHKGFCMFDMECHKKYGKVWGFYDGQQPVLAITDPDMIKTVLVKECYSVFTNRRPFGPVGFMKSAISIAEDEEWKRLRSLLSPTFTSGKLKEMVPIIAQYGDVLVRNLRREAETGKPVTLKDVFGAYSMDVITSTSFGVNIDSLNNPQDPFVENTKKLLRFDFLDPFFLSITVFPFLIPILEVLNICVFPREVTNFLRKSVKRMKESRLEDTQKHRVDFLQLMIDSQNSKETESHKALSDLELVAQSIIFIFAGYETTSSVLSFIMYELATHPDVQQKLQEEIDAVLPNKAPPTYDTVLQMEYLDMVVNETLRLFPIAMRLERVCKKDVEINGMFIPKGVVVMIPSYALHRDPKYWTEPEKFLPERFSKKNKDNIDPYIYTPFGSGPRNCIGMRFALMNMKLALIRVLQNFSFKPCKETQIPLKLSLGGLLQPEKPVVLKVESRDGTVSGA
Procedure: (§1) Based on IC50 values, the Kis of sauchinone for CYP2B6, 2C19, 2E1, and 3A4 were determined. Different concentrations (20, 50, and 200 μM) of sauchinone were used. Other procedures were similar to those mentioned above regarding the reversible inhibitory effects of sauchinone. The inhibitory characteristics of sauchinone were initially estimated by nonlinear least squares regression analysis. Its Ki values were determined by Dixon plots.

[6] = molecular target: T5, CYP2D6 (Homo sapiens, UniProt P10635); assay: Reversible inhibition (RI) of CYP2D6 activity in HLMs (cocktail probe assay); format: in vitro ADME; details: 5 μM dextromethorphan, 30 min incubation
T5 construct: pooled human liver microsomes from a mixed pool of 50 donors; tissue BD Gentest Co. 452156; host or cells: human liver microsomes, pool of 50 donors
T5 sequence (P10635 whole entry): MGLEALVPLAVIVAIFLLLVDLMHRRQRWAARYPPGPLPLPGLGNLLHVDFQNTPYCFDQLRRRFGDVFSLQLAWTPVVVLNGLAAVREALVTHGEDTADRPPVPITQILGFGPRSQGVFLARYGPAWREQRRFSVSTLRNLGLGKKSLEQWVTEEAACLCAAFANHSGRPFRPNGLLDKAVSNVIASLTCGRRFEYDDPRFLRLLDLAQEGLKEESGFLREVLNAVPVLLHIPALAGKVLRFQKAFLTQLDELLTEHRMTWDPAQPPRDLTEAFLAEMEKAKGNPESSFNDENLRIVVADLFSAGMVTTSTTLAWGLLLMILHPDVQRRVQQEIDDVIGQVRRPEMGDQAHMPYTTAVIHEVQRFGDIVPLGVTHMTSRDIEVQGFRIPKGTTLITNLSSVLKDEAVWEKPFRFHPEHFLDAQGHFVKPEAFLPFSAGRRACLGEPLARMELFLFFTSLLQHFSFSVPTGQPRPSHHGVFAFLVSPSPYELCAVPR

[7] = molecular target: T6, CYP2C19 (Homo sapiens, UniProt P33261); assay: Reversible inhibition (RI) of CYP2C19 activity in HLMs (cocktail probe assay); format: in vitro ADME; details: S-mephenytoin hydroxylation, 100 μM S-mephenytoin, 30 min incubation
T6 construct: pooled human liver microsomes from a mixed pool of 50 donors; tissue BD Gentest Co. 452156; host or cells: human liver microsomes, pool of 50 donors
T6 sequence (P33261 whole entry): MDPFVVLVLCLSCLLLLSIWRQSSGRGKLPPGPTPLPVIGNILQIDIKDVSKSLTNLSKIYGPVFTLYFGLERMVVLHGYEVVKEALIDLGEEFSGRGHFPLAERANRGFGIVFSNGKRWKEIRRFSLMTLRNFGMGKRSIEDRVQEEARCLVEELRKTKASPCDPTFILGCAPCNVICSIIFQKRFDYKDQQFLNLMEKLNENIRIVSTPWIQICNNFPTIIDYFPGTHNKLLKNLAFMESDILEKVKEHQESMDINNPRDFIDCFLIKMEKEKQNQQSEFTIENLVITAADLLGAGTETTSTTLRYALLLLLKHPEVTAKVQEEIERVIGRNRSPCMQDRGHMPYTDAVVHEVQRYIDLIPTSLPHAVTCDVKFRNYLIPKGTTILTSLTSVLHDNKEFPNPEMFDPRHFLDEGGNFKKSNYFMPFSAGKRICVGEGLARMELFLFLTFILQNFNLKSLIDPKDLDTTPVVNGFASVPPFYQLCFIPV

[8] = molecular target: T7, CYP2B6 (Homo sapiens, UniProt P20813); assay: Time-dependent inhibition (TDI) IC50 shift assay on CYP2B6 in HLMs; format: in vitro ADME; details: for IC50: HLMs, 10 min incubation
T7 construct: pooled human liver microsomes from a mixed pool of 50 donors; tissue BD Gentest Co. 452156; host or cells: human liver microsomes, pool of 50 donors
T7 sequence (P20813 1-491): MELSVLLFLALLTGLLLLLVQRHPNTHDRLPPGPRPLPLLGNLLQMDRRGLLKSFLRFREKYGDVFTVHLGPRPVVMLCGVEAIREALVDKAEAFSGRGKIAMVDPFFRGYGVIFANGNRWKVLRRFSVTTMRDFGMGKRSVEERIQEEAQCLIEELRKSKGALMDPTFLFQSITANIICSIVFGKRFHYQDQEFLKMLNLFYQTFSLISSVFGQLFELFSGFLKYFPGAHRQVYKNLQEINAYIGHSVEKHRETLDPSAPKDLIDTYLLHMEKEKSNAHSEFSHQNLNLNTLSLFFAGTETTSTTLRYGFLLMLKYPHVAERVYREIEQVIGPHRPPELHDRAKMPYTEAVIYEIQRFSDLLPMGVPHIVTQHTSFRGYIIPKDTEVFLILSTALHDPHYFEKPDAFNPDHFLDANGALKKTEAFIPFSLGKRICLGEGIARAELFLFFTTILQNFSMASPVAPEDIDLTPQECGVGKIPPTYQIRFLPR

[9] = molecular target: T4, CYP3A4; assay: Time-dependent inhibition (TDI) IC50 shift assay on CYP3A4 in HLMs; format: in vitro ADME; details: for IC50: HLMs, 10 min incubation
[10] = molecular target: T8, CYP1A2 (Homo sapiens, UniProt P05177); assay: Time-dependent inhibition (TDI) IC50 shift assay on CYP1A2 in HLMs; format: in vitro ADME; parameters: […]; tissue BD Gentest Co. 452156; details: 10 min incubation
T8 sequence (P05177 1-516): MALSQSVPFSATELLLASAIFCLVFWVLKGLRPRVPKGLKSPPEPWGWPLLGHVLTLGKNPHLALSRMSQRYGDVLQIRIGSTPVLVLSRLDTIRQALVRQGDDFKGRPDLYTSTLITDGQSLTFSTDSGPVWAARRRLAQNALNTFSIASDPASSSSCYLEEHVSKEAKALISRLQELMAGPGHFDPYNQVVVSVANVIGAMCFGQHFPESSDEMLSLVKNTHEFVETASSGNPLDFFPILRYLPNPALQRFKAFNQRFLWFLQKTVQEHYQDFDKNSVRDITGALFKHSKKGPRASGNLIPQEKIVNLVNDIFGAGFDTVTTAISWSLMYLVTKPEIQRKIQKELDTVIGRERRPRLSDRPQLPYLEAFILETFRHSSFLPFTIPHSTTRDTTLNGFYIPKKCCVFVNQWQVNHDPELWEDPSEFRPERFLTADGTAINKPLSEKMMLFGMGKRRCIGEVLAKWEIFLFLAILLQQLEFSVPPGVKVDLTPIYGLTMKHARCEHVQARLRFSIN

[11] = molecular target: T1, CYP2C9; assay: Time-dependent inhibition (TDI) IC50 shift assay on CYP2C9 in HLMs; format: in vitro ADME; details: 10 min incubation
[12] = molecular target: T6, CYP2C19; assay: Enzyme kinetic assay (Dixon plot, Ki) for CYP2C19 in HLMs; format: in vitro ADME
Procedure: as §1

[13] = molecular target: T3, CYP2A6; assay: Reversible inhibition (RI) of CYP2A6 activity in HLMs (cocktail probe assay)
[14] = molecular target: T7, CYP2B6; assay: Reversible inhibition (RI) of CYP2B6 activity in HLMs (cocktail probe assay); format: in vitro ADME; details: bupropion hydroxylation, 50 μM bupropion, 30 min incubation
[15] = molecular target: T6, CYP2C19; assay: Time-dependent inhibition (TDI) IC50 shift assay on CYP2C19 in HLMs; format: in vitro ADME; details: for IC50: HLMs, 10 min incubation
[16] = molecular target: T4, CYP3A4; assay: Reversible inhibition (RI) of CYP3A4 activity in HLMs (cocktail probe assay); format: in vitro ADME; details: testosterone hydroxylation, 50 μM testosterone, 30 min incubation
[17] = molecular target: T8, CYP1A2; assay: Reversible inhibition (RI) of CYP1A2 activity in HLMs (cocktail probe assay)
[18] = molecular target: T2, CYP2E1; assay: Enzyme kinetic assay (Dixon plot, Ki) for CYP2E1 in HLMs; format: in vitro ADME
Procedure: as §1

[19] = molecular target: T5, CYP2D6; assay: Time-dependent inhibition (TDI) IC50 shift assay on CYP2D6 in HLMs; format: in vitro ADME
[20] = molecular target: T7, CYP2B6; assay: Enzyme kinetic assay (Dixon plot, Ki) for CYP2B6 in HLMs; format: in vitro ADME
Procedure: as §1

- IC50 [1]: > 300 µM
- IC50 ([2]; 0 min pre-incubation with NADPH, read-out: IC50 on CYP2E1, 0 min inactivation incubation (TDI)): 105 ± 57 µM
- IC50 ([2]; IC50 on CYP2E1, 30 min inactivation incubation (TDI), 30 min pre-incubation with NADPH): 5.04 ± 1.91 µM
- IC50 shift at 10 min ([2]; human, human liver microsomes, pH 7.4, probe chlorzoxazone (substrate cocktail set)): 20.9
- IC50 ([3]; 0 min pre-incubation with NADPH, read-out: IC50 on CYP2A6, 0 min inactivation incubation (TDI)): > 300 µM
- IC50 ([3]; IC50 on CYP2A6, 30 min inactivation incubation (TDI), 30 min pre-incubation with NADPH): > 300 µM
- IC50 [4]: 35.4 µM and 35.8 µM
- Ki ([5]; sauchinone 20, 50, 200 μM, read-out: Apparent inhibition constant (Ki) for CYP3A4): 6.84 µM
- Type of reversible inhibition of CYP3A4 (Dixon plot model) ([5]; visual inspection): noncompetitive
- IC50 [6]: > 300 µM
- IC50 [7]: 3.6 ± 2.54 µM
- IC50 ([8]; 0 min pre-incubation with NADPH, read-out: IC50 on CYP2B6, 0 min inactivation incubation (TDI)): 36.4 ± 27 µM
- IC50 ([8]; IC50 on CYP2B6, 30 min inactivation incubation (TDI), 30 min pre-incubation with NADPH): 3.93 ± 5.72 µM
- IC50 shift at 10 min ([8]; human, human liver microsomes, pH 7.4, probe bupropion (substrate cocktail set)): 9.28
- IC50 ([9]; 0 min pre-incubation with NADPH, read-out: IC50 on CYP3A4, 0 min inactivation incubation (TDI)): 24.5 ± 51.3 µM
- IC50 ([9]; IC50 on CYP3A4, 30 min inactivation incubation (TDI), 30 min pre-incubation with NADPH): 1.14 ± 2.29 µM
- IC50 shift at 10 min ([9]; human, human liver microsomes, pH 7.4, probe testosterone (substrate cocktail set)): 21.4
- IC50 ([10]; 0 min pre-incubation with NADPH, read-out: IC50 on CYP1A2, 0 min inactivation incubation (TDI)): > 300 µM
- IC50 ([10]; IC50 on CYP1A2, 30 min inactivation incubation (TDI), 30 min pre-incubation with NADPH): > 300 µM
- IC50 ([11]; 0 min pre-incubation with NADPH, read-out: IC50 on CYP2C9, 0 min inactivation incubation (TDI)): > 300 µM
- IC50 ([11]; IC50 on CYP2C9, 30 min inactivation incubation (TDI), 30 min pre-incubation with NADPH): > 300 µM
- Ki ([12]; sauchinone 20, 50, 200 μM, read-out: Apparent inhibition constant (Ki) for CYP2C19): 16.8 µM
- Type of reversible inhibition of CYP2C19 (Dixon plot model) ([12]; visual inspection): noncompetitive
- IC50 [13]: > 300 µM
- IC50 [14]: 0.458 ± 0.0932 µM
- IC50 ([15]; 0 min pre-incubation with NADPH, read-out: IC50 on CYP2C19, 0 min inactivation incubation (TDI)): 28.5 ± 0.267 µM
- IC50 ([15]; IC50 on CYP2C19, 30 min inactivation incubation (TDI), 30 min pre-incubation with NADPH): 19.4 ± 2.92 µM
- IC50 shift ([15]; human, human liver microsomes, pH 7.4): 1.47
- IC50 [16]: 0.207 ± 0.193 µM
- IC50 [17]: > 300 µM
- Ki ([18]; sauchinone 20, 50, 200 μM, read-out: Apparent inhibition constant (Ki) for CYP2E1): 41.7 µM
- Type of reversible inhibition of CYP2E1 (Dixon plot model) ([18]; visual inspection): noncompetitive
- IC50 ([19]; 0 min pre-incubation with NADPH, 10 min incubation, read-out: IC50 on CYP2D6, 0 min inactivation incubation (TDI)): > 300 µM
- IC50 ([19]; read-out: IC50 on CYP2D6, 30 min inactivation incubation (TDI), 30 min pre-incubation with NADPH, 10 min incubation): > 300 µM
- Ki ([20]; sauchinone 20, 50, 200 μM, read-out: Apparent inhibition constant (Ki) for CYP2B6): 14.3 µM
- Type of reversible inhibition of CYP2B6 (Dixon plot model) ([20]; visual inspection): noncompetitive
SMILES: C[C@@H]1[C@H]2c3cc4c(cc3O[C@@]35OCOC3=CC(=O)[C@H](C[C@H]1C)[C@@H]25)OCO4 [Sauchinone]

SMILES: N[C@@H]1C[C@H]1c1ccccc1 (racemic) [tranylcypromine, reference compound]
- IC50 ([13]; read-out: IC50 on CYP2A6 activity (RI), HLMs, reversible inhibition, 5 μM coumarin, 30 min incubation, inhibitor 0–300 μM): 1.99 µM
